Tests used:
TrkB:PLCγ1 = target: T1, TrkB:PLCγ1 (Rattus norvegicus, UniProt Q63604); test: ELISA of TrkB:PLCγ1 interaction in neuronal cultures; assay type: cell-based
T1 construct: endogenous in cells; host or cells: rat cortical neuronal cultures (E18, DIV21)
Protocol: The phosphorylation of TrkB (pY816) and interaction with PLCγ1 were assessed by enzyme-linked immunosorbent assay (ELISA) as previously described[11],[80],[81] with minor modifications. Briefly, white 96-well plates (PerkinElmer, OptiPlate 96F-HB) were precoated with goat anti-TrkB (R&D systems, AF1494; 1:500, overnight, 4 °C) antibody in carbonate buffer (pH 9.8) and blocked with 3% BSA in PBS with 0.1% Tween-20 (PBS-T) for 2 h at room temperature. […] Samples were incubated overnight at 4 °C, and 24 h later plates were washed with PBS-T and incubated with either rabbit anti-phospho-TrkB(Tyr816) (Cell Signaling Technology, 4168S; 1:2,000), rabbit anti-PLCγ1 (Cell Signaling Technologies, 5690S; 1:2,000) or rabbit anti-Trk (Cell Signaling Technologies, 92991; 1:2,000) antibodies overnight at 4 °C. After washing with PBS-T, plates were incubated with HRP-conjugated goat anti-rabbit (Bio-Rad, 170–5046; 1:5,000, 1 h, room temperature) antibody, followed by more washing with PBS-T. Finally, the chemiluminescent signal was read after brief incubation with Pierce ECL substrate (Thermo Fisher Scientific, 32106). Luminescence from blank wells that contained all reagents but the sample lysates was used to determine background signal.

TrkB Y433F = target: T2, TrkB Y433F (Rattus norvegicus, UniProt Q63604, Y433F); test: Radioligand dissociation binding of ^3H-LSD; conditions: ext fig 1c, n=3
T2 construct: expressed in transfected cells; host or cells: HEK293T
Protocol: (§1) Binding assays were performed as previously described with minor modifications. […] Samples from mouse embryo (E18) brains were also lysed, vortexed, sonicated and centrifuged for binding assays. Plates were then washed with PBS. […] For the competition binding assays with biotinylated R,R-HNK, the amino-biotinylation of R,R-HNK was performed using a commercial kit (Thermo Scientific, EZ-Link NHS-PEG4 Biotinylation Kit, 21455) and the reaction monitored by MS. A mixture of biotinylated R,R-HNK (10 µM) and unlabeled compounds (1 pM to 10 µM) in PBS was added to the 96-well plates containing the immunoprecipitated TrkB and incubated for 1 h at room temperature. […] Luminescence was determined via streptavidin conjugated with horseradish peroxidase (HRP; Thermo Fisher Scientific, 21126; 1:5,000, 1 h at room temperature) in reaction with the Pierce ECL substrate (Thermo Fisher Scientific, 32106). Luminescence from blank wells that contained all reagents but the sample lysates was used to determine nonspecific binding. To obtain the binding curves, results from binding assays were fitted to the equation of specific binding with Hill slope from GraphPad Prism 9.2. To calculate koff values, results were fitted to the equation of dissociation of one phase exponential decay from GraphPad Prism 9.2.

TrkB WT = target: T3, TrkB WT (Rattus norvegicus, UniProt Q63604); test: Radioligand dissociation binding of ^3H-LSD; conditions: ext fig 1c, n=3
T3 construct: expressed in transfected cells; host or cells: HEK293T
Protocol: as §1

T3 sequence (Q63604 32-821): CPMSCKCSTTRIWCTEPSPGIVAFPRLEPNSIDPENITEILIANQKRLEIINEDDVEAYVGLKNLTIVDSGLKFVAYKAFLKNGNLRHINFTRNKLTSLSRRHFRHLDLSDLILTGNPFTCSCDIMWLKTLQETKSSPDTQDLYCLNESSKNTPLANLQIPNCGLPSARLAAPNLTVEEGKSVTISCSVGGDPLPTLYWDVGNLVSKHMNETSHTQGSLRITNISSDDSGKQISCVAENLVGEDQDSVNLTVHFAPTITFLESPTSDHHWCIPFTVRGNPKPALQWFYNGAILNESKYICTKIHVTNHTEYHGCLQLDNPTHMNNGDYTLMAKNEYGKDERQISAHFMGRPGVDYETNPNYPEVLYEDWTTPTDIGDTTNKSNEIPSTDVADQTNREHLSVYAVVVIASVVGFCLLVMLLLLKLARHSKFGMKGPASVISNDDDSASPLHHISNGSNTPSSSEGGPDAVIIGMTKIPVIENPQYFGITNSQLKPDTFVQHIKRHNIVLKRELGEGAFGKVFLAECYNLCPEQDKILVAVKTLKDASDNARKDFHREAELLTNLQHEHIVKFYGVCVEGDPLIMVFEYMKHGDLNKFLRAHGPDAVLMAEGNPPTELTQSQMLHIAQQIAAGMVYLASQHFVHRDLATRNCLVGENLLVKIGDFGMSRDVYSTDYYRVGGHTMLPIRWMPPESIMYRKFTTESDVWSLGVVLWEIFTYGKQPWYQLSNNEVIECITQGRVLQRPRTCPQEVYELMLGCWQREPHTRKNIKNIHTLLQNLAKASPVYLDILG
T2 sequence (Q63604 32-821 Y433F): as the sequence (Q63604 32-821) above, with Y402F counted along it
T1 sequence (Q63604 32-821): as the sequence (Q63604 32-821) above

Compound: CCN(CC)C(=O)C1C=C2c3cccc4[nH]cc(c34)CC2N(C)C1 (stereo not shown) [LSD, lysergic acid diethylamide]
- TrkB interaction with PLCγ1 (TrkB:PLCγ1): increases TrkB interaction with phospholipase C gamma 1 (PLCγ1)
- K (dissociation, one phase exponential decay) (TrkB Y433F): 0.02402
- NS (dissociation, one phase exponential decay) (TrkB Y433F): 6.951
- Y0 (dissociation, one phase exponential decay) (TrkB Y433F): 108.1
- K (dissociation, one phase exponential decay) (TrkB WT): 0.008532
- NS (dissociation, one phase exponential decay) (TrkB WT): 2.667
- Y0 (dissociation, one phase exponential decay) (TrkB WT): 110.7
